As usually defined, the IC50 is the point on the concentration scale where inhibition reaches its midpoint.

This assay concerns the target T1, carbonic anhydrase (CA) from bovine erythrocytes (Bos taurus, UniProt P00921).
T1 construct: gene CA2; native full-length enzyme from bovine erythrocytes, N-terminal Ser1, 18 Lys
In words: UV monitoring of 4-nitrophenyl acetate hydrolysis (esterase activity). Format: biochemical. The following applies: read-out: apparent IC50.

T1 sequence (P00921 2-260): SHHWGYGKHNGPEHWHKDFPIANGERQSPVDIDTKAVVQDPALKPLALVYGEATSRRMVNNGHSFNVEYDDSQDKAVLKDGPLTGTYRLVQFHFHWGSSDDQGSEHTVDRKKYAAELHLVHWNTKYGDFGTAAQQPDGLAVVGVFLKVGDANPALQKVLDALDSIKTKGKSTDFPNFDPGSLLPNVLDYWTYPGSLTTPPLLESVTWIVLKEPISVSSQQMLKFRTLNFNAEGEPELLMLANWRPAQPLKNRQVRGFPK

With `O=Cc1c(F)c(F)c(SC[C@H](NC(=O)OCc2ccccc2)C(=O)O)c(F)c1F` [A8], the IC50 was ~1000 nM.

The record behind these values is publication PMC10530293, “Supramolecular multivalency effects enhance imine formation in aqueous medium allowing for dynamic modification of enzymatic activity” (Chemical Science, 2023).
